{
  "source": "patent US12233413B2",
  "about": "“Massively parallel microfluidic cell analyzer for high throughput mechanophenotyping” (priority 2018, dated 2025)",
  "key": {"[1]": {"system": "HeyA8 ovarian cancer cells", "assay_type": "cell-based", "method": "Cell transit times were determined in accordance with the approach described above. […] In the testing, Phosphate Buffered Saline (PBS) suspended HeyA8 ovarian cancer cells were driven through the device using a pressure pump controller (Fluigent MFCS-EZ) at 80 mbar. Three suspensions of cells with varying stiffness were prepared. The first sample was exposed to 1 μM Latrunculin A, abbreviated as LatA, (Sigma-Aldrich), an Actin polymerization inhibitor, for 60 mins at 37° C. to reduce the cell stiffness. The second sample was left untreated. […] In operation, the sensor network 620 was driven with an 500 kHz AC signal and the electrical sensor data from the chip was recorded using a lock-in-amplifier (Zurich Instruments HF2LI) and sampled into a computer. The cell size and the transit time were both measured from the sensor signal peak amplitude and the time delay between the code waveforms corresponding to sensor pairs, respectively."}, "[2]": {"system": "MDA-MB-231 (human mammary adenocarcinoma) cells", "assay_type": "cell-based", "method": "For each population in our experiments, we used the computed sensor signal amplitude and constriction transit time as measures of the cell size and its stiffness, respectively (see FIGS. 10A-10C).\nBecause the data on different cell populations were acquired under the same driving pressure and electrical excitation, we could directly compare the characterization results (see FIG. 10D).\nFor the single frequency device, two different sample of MDA-MB-231 cells were treated with Latrunculin A (Sigma-Aldrich; St. Louis, MO) and formaldehyde (Sigma-Aldrich; St. Louis, MO) and suspended in Phosphate Buffered Saline (PBS). […] Prior to experiments, the cells were trypsinized for two minutes, pelleted, resuspended in PBS and mixed gently to dissociate cell clusters that may have formed. Finally, the suspension was diluted with PBS to a cell concentration of 1.5×10^6 cells/mL. For the LatA exposure, 100 μg of LatA in lyophilized powder form was reconstituted in dimethyl sulfoxide (DMSO), then diluted in PBS to form a 5.9 nM stock solution. The trypsinized and pelleted MDA-MB-231 cells were mixed with 1 mL of 1 nM LatA and incubated at 37° C. for 60 mins. The cells were pelleted once more and resuspended in PBS. […] The trypsinized and pelleted MDA-MB-231 cells were mixed with diluted 4% PFA and incubated at 37° C. for 10 mins. The cells were pelleted once more and resuspended in PBS.\nDuring the above-described experiment, the cell sample was loaded into a sealed 10 mL laboratory tube and pneumatically driven through the device using a software-controlled pressure regulator (MFCSEZ, Fluigent). The driving pressure was 100 mbar for both single-frequency and multi-frequency devices. In the case of the single-frequency device, the electrical networks were excited using a 800 mVpp, 500 kHz sinusoidal signal generated by the lock-in amplifier (HF2LI, Zurich Instruments). For the multi-frequency device, the 500 kHz and 900 kHz sine signals were generated by the lock-in amplifier, whereas the 1300 kHz signal was obtained using a waveform generator (33612A, Keysight), all at 800 mVpp."}},
  "note": "Read-outs that look alike come from different tables or passages of the source.",
  "data": [
    {"molecule": "C=O", "note": "[Formaldehyde]", "values": [
      {"measurement": "longer transit time of treated cells compared to the untreated cells", "setting": "[1]", "value": 36, "unit": "%"},
      {"measurement": "average constriction transit time of treated cells", "setting": "[2]", "value": 54.01, "unit": "ms"}
    ]},
    {"molecule": "C/C1=C/C(=O)O[C@@H]2C[C@@H](CC[C@H](C)/C=C\\C=C\\CC1)O[C@@](O)([C@@H]1CSC(=O)N1)C2", "note": "[LatA, Latrunculin A]", "values": [
      {"measurement": "transit time of the untreated cells longer than that of the LatA treated cells, on average", "setting": "[1]; HeyA8 cells in PBS, 1 μM Latrunculin A, 60 mins at 37° C., driven at 80 mbar", "value": 34, "unit": "%"},
      {"measurement": "less constriction transit time than untreated cells, on average", "setting": "[2]; MDA-MB-231, 1 nM LatA 60 mins at 37° C., 100 mbar", "value": 8.9, "unit": "%"},
      {"measurement": "average constriction transit time of treated cells", "setting": "[2]; MDA-MB-231, 100 mbar, 1.5×10^6 cells/mL, LatA 1 nM 60 mins 37° C., fixation with diluted 4% PFA 10 mins 37° C.", "value": 42.35, "unit": "ms"}
    ]}
  ]
}
